# Test results published in US20030134901A1, “Lipoxin compounds and their use in treating cell proliferative disorders” (priority 1993, published 2003).
# How the values were obtained:
# PMA-treated HL-60 cells = experiment: Lipoxin metabolism / bio-half-life assay with phorbol ester-treated HL-60 cells; assay type: in vitro ADME, human
# Procedure: HL-60 cells were purchased from American Type Culture Collection (Rockville, Md.), and other cell culture reagents were from GIBCO (Grand Island, N.Y.). Versene (EDTA) was from Whittaker Bioproducts (Walkersville, Md.). Synthetic 11,12-acetylenic LXA4 methyl ester and LXs were from Cascade Biochemical (Reading, U.K.). 15(S)-15-m-PGE1, PGE1, and 5-HETE were from Cayman Chemical Co. (Ann Arbor, Mich.). [11,12-^3H]LXA4 was prepared from 11,12-acetylenic LXA4 using Lindlar catalyst as a custom tritiation (NET-259, lot 0 2793-275, New England Nuclear, Boston, Mass.). Tritiated products were isolated using RP-HPLC (Fiore et al. (1992) J. Biol. Chem. 267:16168; Serhan, C. N. (1990) Meth. Enzymol. 187:167). Methoxyamine and NAD were from Sigma Chemical Company (St. Louis, Mo.). Manganese dioxide and Adams reagent were from Aldrich Chemical Co. (Milwaukee, Wis.).
# Human PMN were obtained from healthy volunteers by gradient centrifugation of heparinized fresh venous blood (Böyum, A. ([…]) Scand. J. Clin. Lab. Invest. 21:77). HL-60 cells were seeded in RPMI supplemented with penicillin (100 U/ml), streptomycin (100 μ/ml), fetal bovine serum (10%) (Hyclone, Logan, Utah) and incubated (37° C. with 5% CO2 atmosphere) in plastic 250 ml flasks. Individual flasks containing […] HL-60 cells/ml were incubated in the presence or absence of phorbol 12-myristate 13-acetate (PMA) (10 or 16 nM, 24-27 h) and adherence was monitored for induction of macrophage-like phenotype as in Collins, S. J. (1987) Blood 70:1233. […]
# Incubations with eicosanoids were stopped with cold methanol containing either PGB2 or 5-HETE as internal standards (5-HETE was used when 15-oxo-ETE was quantified). […] Formation of 15-oxo-ETE by 100,000 g supernatants (cf. Agins, A. P. et al. (1987) Agents Actions 21:397; Xun, C-Q. et al.(1991) Biochem. J. 279:553; and Sok, D-E. et al. (1988) Biochem. Biophys. Res. Commun. 156:524) was quantified after RP-HPLC using an ODS column (4.6 mm×25 cm) eluted with methanol/H2O/acetic acid (70:30:0.01, v/v/v) monitored at 280 nm with a flow rate of 1 ml/min. […] On-line spectra were recorded using a diode array detector (Hewlett-Packard 1040M series II) equipped with HPLC^3D ChemStation software (DOS series). […]
# The “bio-half-life” of compounds 1-8 was assessed using phorbol ester-treated human promyelocytic leukemia (HL-60) cells as described in Example 2. […]
# A549 cells = experiment: A549 cell proliferation, MTT assay; assay type: cell-based, human
# Summary of the method: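 A549 cells, ~2000/well, given compounds at 5-1000 nM or 0.15% ethanol vehicle after 24 h, quadruplicates, up to 96 h at 37° C. MTT added 4 h, dye extracted in acidified isopropanol and read at 570 nm; MTT signal linear with cell number.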
smiles,measurement,setting,value
"CCCCC[C@H](O)/C=C/C=C\C=C\C=C\[C@@H](O)[C@@H](O)CCCC(=O)O [LXA4, (5S, 6R, 15S)-trihydroxy-7E, 9E, 11Z, 13E-eicosatetraenoic acid]",LXA4 metabolized,"PMA-treated HL-60 cells; PMA-treated HL-60 cells, within the first 60 s of exposure",> 70%
same,LXA4 converted,PMA-treated HL-60 cells; within five minutes of addition to the cell incubation,more than 95%
same,inhibition of A549 cell proliferation over time,"A549 cells; 1 μM, after 72 and 96 hours of treatment",inhibited A549 cell proliferation
same,inhibition at 0.1 µM,"A549 cells; Homo sapiens, A549, 10^−7 M, 72 hours at 37° C., mean ± SEM, 3 to 7 experiments",16.3 ± 5.2%
same,IC50,"A549 cells; Homo sapiens, A549, MTT assay, 72 hours, read-out: half maximum inhibition (IC50) of A549 cell proliferation",~80 nM
